Assay [1] relates to Mino cells. The assay is described as follows: Antiproliferative effect, MTS cell viability assay, Mino cells. It is filed as cell-based. Particulars: Homo sapiens, MINO, Mino mantle cell lymphoma cells; read-out: IC50 (anti-proliferation) Mino cells. The procedure: (§1) Antiproliferative effect of the exemplary compounds was assessed in B-cell malignancy models.
(§2) To assess the effect of the exemplary compounds on cell viability in B-cell malignancy models by degradation of BTK protein, Mino and JeKo-1 cells were treated with varying concentrations of Ibrutinib (0, 0.001, 0.01, 0.1, 1, 10 μM). Under these conditions, cell viability was determined by an MTS assay. Cytotoxicity was assayed by the determination of reduced tetrazolium (formazan) created by metabolically active cells as detected at 490 nm absorbance using a microplate reader (BMG Labtech, Cary, NC, USA).
(§3) The exemplary compounds attenuated the viability of Mino and JeKo-1 cells in a concentration-dependent manner at 72 h post treatment. Results are shown in Table 1 for each exemplary compound.

For assay [2], the target named is BTK (Homo sapiens, UniProt Q06187). Briefly: Degradation of BTK protein in Namalwa cells (Western blot; DC50, Dmax). The conditions noted are these: for DC50: cell line not given.
BTK, sequence (Q06187 whole entry): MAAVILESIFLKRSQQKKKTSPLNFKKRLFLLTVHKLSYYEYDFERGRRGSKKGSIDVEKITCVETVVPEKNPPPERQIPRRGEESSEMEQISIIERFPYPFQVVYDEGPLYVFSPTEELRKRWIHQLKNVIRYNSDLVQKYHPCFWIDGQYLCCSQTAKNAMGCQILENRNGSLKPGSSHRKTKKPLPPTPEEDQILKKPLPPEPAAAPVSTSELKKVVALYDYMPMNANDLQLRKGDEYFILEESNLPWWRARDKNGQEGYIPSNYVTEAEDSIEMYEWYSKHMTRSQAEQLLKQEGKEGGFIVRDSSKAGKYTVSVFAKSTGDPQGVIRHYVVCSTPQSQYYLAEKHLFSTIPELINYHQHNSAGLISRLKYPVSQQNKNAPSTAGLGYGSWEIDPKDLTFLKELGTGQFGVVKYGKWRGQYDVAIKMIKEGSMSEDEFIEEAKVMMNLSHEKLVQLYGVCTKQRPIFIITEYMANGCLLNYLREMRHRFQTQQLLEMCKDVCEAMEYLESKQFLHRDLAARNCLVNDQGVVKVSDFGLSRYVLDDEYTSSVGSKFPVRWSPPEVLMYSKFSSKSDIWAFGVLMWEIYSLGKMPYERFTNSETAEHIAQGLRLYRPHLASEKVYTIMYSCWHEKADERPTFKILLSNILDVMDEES
The subject of assay [3] is JeKo-1 cells. The assay is described as follows: Antiproliferative effect, MTS cell viability assay, JeKo-1 cells. Particulars: Homo sapiens; JeKo-1 mantle cell lymphoma cells; read-out: IC50 (anti-proliferation) JeKO-1 cells. It is filed as cell-based. The procedure:
as §1, §2, §3
A general note: Tetrazolium dyes change colour on reduction, which living cells bring about.

The mark [4] stands for this setting: read-out: DC50 (BTK degradation), concentration giving 50% reduction of BTK expression level.
Where [5] appears, read: read-out: Dmax (BTK degradation).

Where two headings read alike, the source gives them in different places.

Usually Dmax stands for the greatest extent of degradation seen. As a reminder, the DC50 is the concentration giving 50% degradation. With `NC(=O)c1c(-c2ccc(Oc3ccccc3)cc2)nn2c1NCC[C@H]2C1CCN(CC2CCN(CCN3CCN(c4ccc5c(c4)C(=O)N(C4CCC(=O)NC4=O)C5=O)CC3)CC2)CC1` (stereo partly drawn) [Compound 331, (7S)-7-(1-((1-(2-(4-(2-(2,6-dioxopiperidin-3-yl)-1,3-dioxoisoindolin-5-yl)piperazin-1-yl)ethyl)piperidin-4-yl)methyl)piperidin-4-yl)-2-(4-phenoxyphenyl)-4,5,6,7-tetrahydropyrazolo[1,5-a]pyrimidine-3-carboxamide], the IC50 in assay [1] was above 10000 nM; in assay [3], 1000 to 10000 nM. Also, the Dmax in assay [2] is above 75%. Moreover, in assay [2] (BTK degradation), the DC50 was above 50 nM.

On to `NC(=O)c1c(-c2ccc(Oc3ccccc3)cc2)nn2c1NCCC2C1CCN(CC2CCN(C(=O)N3CCC(CN4CCC(c5ccc6c(c5)C(=O)N(C5CCC(=O)NC5=O)C6=O)CC4)CC3)CC2)CC1` (centres unmarked) [Compound 375, 7-(1-((1-(4-((4-(2-(2,6-dioxopiperidin-3-yl)-1,3-dioxoisoindolin-5-yl)piperidin-1-yl)methyl)piperidine-1-carbonyl)piperidin-4-yl)methyl)piperidin-4-yl)-2-(4-phenoxyphenyl)-4,5,6,7-tetrahydropyrazolo[1,5-a]pyrimidine-3-carboxamide], for which the IC50 in assay [1] and in assay [3] was 1000 to 10000 nM each time. Besides, the greatest degradation seen (Dmax) in assay [2] is above 75%. The compound further had a DC50 in assay [2] (BTK degradation) of 10 to 50 nM.

As for `Nc1ncnc2c1c(-c1ccc(Oc3ccccc3)cc1)nn2C1CCN(C2CCN(C(=O)N3CCC(CCN4CCC(c5ccc6c(c5)CN(C5CCC(=O)NC5=O)C6=O)CC4)CC3)CC2)CC1` (centres unmarked) [Compound 254, 3-(5-(1-(2-(1-(4-(4-amino-3-(4-phenoxyphenyl)-1H-pyrazolo[3,4-d]pyrimidin-1-yl)-[1,4′-bipiperidine]-1′-carbonyl)piperidin-4-yl)ethyl)piperidin-4-yl)-1-oxoisoindolin-2-yl)piperidine-2,6-dione], the IC50 in assay [1] and in assay [3] was 1000 to 10000 nM throughout. In assay [2], the greatest degradation seen (Dmax) was above 90%. The compound also showed a DC50 in assay [2] (BTK degradation) below 10 nM.

Regarding `Nc1ncnc2c1c(-c1ccc(Oc3ccccc3)cc1)nn2C1CCN(CC2CCN(CC3CCN(c4ccc(NC5CCC(=O)NC5=O)cc4)CC3)CC2)CC1` (centres unmarked) [Compound 557, 3-((4-(4-((4-((4-(4-amino-3-(4-phenoxyphenyl)-1H-pyrazolo[3,4-d]pyrimidin-1-yl)piperidin-1-yl)methyl)piperidin-1-yl)methyl)piperidin-1-yl)phenyl)amino)piperidine-2,6-dione], the IC50 in assay [1] and in assay [3] was below 1000 nM in each case. Further, the DC50 in assay [2] (setting [4]) was below 10 nM. Moreover, in assay [2] (setting [5]), the Dmax is above 90%.

With `NC(=O)c1c(-c2ccc(Oc3ccccc3)cc2)nn2c1NCCC2C1CCN(CCOCCOCCN2CCN(c3ccc4c(c3)CN(C3CCC(=O)NC3=O)C4=O)CC2)CC1` (centres unmarked) [Compound 270, 7-(1-(2-(2-(2-(4-(2-(2,6-dioxopiperidin-3-yl)-1-oxoisoindolin-5-yl)piperazin-1-yl)ethoxy)ethoxy)ethyl)piperidin-4-yl)-2-(4-phenoxyphenyl)-4,5,6,7-tetrahydropyrazolo[1,5-a]pyrimidine-3-carboxamide], the IC50 is 1000 to 10000 nM in assay [1] and above 10000 nM in assay [3]. The compound further displayed a Dmax in assay [2] above 90%. In assay [2] (BTK degradation), this compound gave a DC50 of 10 to 50 nM.

As to `Nc1ncnc2c1c(-c1ccc(Oc3ccccc3)cc1)nn2C1CCN(CCN2CCN(CCCSc3ccc4c(c3)CN(C3CCC(=O)NC3=O)C4=O)CC2)CC1` (centres unmarked) [Compound 468], the IC50 in assay [1] and in assay [3] was 1000 to 10000 nM each time. In addition, the DC50 in assay [2] (setting [4]) was below 10 nM. Moreover, in assay [2] (setting [5]), the Dmax is above 90%.

As to `NC(=O)c1c(-c2ccc(Oc3ccccc3)cc2)nn2c1NCCC2C1CCN(C(=O)N2CCC(CN3CCN(c4ccc5c(c4)CN(C4CCC(=O)NC4=O)C5=O)CC3)CC2)CC1` (centres unmarked) [Compound 276, 7-(1-(4-((4-(2-(2,6-dioxopiperidin-3-yl)-1-oxoisoindolin-5-yl)piperazin-1-yl)methyl)piperidine-1-carbonyl)piperidin-4-yl)-2-(4-phenoxyphenyl)-4,5,6,7-tetrahydropyrazolo[1,5-a]pyrimidine-3-carboxamide], the IC50 in assay [1] and in assay [3] was below 1000 nM throughout. This compound also yielded a Dmax in assay [2] above 90%. Also, in assay [2] (BTK degradation), the DC50 was below 10 nM.

Take `Nc1ncnc2c1c(-c1ccc(Oc3ccccc3)cc1)nn2C1CCN(C2CCN(C(=O)N3CCN(CCN4CCC(c5ccc6c(c5)C(=O)N(C5CCC(=O)NC5=O)C6=O)CC4)CC3)CC2)CC1` (centres unmarked) [Compound 249, 5-(1-(2-(4-(4-(4-amino-3-(4-phenoxyphenyl)-1H-pyrazol[3,4-d]pyrimidin-1-yl)-[1,4′-bipiperidine]-1′-carbonyl)piperazin-1-yl)ethyl)piperidin-4-yl)-2-(2,6-dioxopiperidin-3-yl)isoindoline-1,3-dione]: the results for the IC50 in assay [1] and in assay [3] were below 1000 nM and 1000 to 10000 nM, respectively. In assay [2], the Dmax is above 75%. The same compound registered a DC50 in assay [2] (BTK degradation) of 10 to 50 nM.

Turning to `NC(=O)c1c(-c2ccc(Oc3ccccc3)cc2)nn2c1NCCC2C1CCN(C2CCN(CCN3CCC(c4ccc5c(c4)CN(C4CCC(=O)NC4=O)C5=O)CC3)CC2)CC1` (centres unmarked) [Compound 312, 7-(1′-(2-(4-(2-(2,6-dioxopiperidin-3-yl)-1-oxoisoindolin-5-yl)piperidin-1-yl)ethyl)-[1,4′-bipiperidin]-4-yl)-2-(4-phenoxyphenyl)-4,5,6,7-tetrahydropyrazolo[1,5-a]pyrimidine-3-carboxamide], the IC50 in assay [1] and in assay [3] was above 10000 nM throughout. In addition, the maximal degradation (Dmax) in assay [2] was above 75%. In assay [2] (BTK degradation), this compound returned a DC50 above 50 nM.

Consider `Nc1ncnc2c1c(-c1ccc(Oc3ccccc3)cc1)nn2C1CCN([C@H]2CCN(CC3CN(c4ccc5c(c4)C(=O)N(C4CCC(=O)NC4=O)C5=O)C3)C2)CC1` (stereo partly drawn) [Compound 425b, 5-(3-(((S)-3-(4-(4-amino-3-(4-phenoxyphenyl)-1H-pyrazolo[3,4-d]pyrimidin-1-yl)piperidin-1-yl)pyrrolidin-1-yl)methyl)azetidin-1-yl)-2-(2,6-dioxopiperidin-3-yl)isoindoline-1,3-dione], for which the IC50 in assay [1] and in assay [3] was 1000 to 10000 nM in each case. Besides, the Dmax in assay [2] (setting [5]) is above 90%.

For `Nc1ncnc2c1c(-c1ccc(Oc3ccccc3)cc1)nn2C1CCN([C@@H]2CCN(CC3CCN(c4ccc5c(c4)C(=O)N(C4CCC(=O)NC4=O)C5=O)CC3)C2)CC1` (stereo partly drawn) [Compound 449b, 5-(4-(((R)-3-(4-(4-amino-3-(4-phenoxyphenyl)-1H-pyrazolo[3,4-d]pyrimidin-1-yl)piperidin-1-yl)pyrrolidin-1-yl)methyl)piperidin-1-yl)-2-(2,6-dioxopiperidin-3-yl)isoindoline-1,3-dione], the IC50 in assay [1] and in assay [3] was below 1000 nM throughout. For the same compound, the DC50 in assay [2] (setting [4]) is below 10 nM. Besides, the Dmax in assay [2] (setting [5]) was above 90%.

As to `NC(=O)c1c(-c2ccc(Oc3ccccc3)cc2)nn2c1NCC[C@H]2C1CCN(C2CCN(C(=O)N3CCC(N4CCN(c5ccc6c(c5)CN(C5CCC(=O)NC5=O)C6=O)CC4)CC3)CC2)CC1` (stereo partly drawn) [Compound 382, (7S)-7-(1′-(4-(4-(2-(2,6-dioxopiperidin-3-yl)-1-oxoisoindolin-5-yl)piperazin-1-yl)piperidine-1-carbonyl)-[1,4′-bipiperidin]-4-yl)-2-(4-phenoxyphenyl)-4,5,6,7-tetrahydropyrazolo[1,5-a]pyrimidine-3-carboxamide], the IC50 in assay [1] and in assay [3] was below 1000 nM each time. Besides, the Dmax in assay [2] is above 90%. In assay [2] (BTK degradation), this compound returned a DC50 below 10 nM.

In the case of `Nc1ncnc2c1c(-c1ccc(Oc3ccccc3)cc1)nn2C1CCN(C2CCN(CCCC3CCN(c4ccc5c(c4)C(=O)N(C4CCC(=O)NC4=O)C5=O)CC3)CC2)CC1` (centres unmarked) [Compound 225, 5-(4-(3-(4-(4-amino-3-(4-phenoxyphenyl)-1H-pyrazolo[3,4-d]pyrimidin-1-yl)-[1,4′-bipiperidin]-1′-yl)propyl)piperidin-1-yl)-2-(2,6-dioxopiperidin-3-yl)isoindoline-1,3-dione], the IC50 in assay [1] and in assay [3] was above 10000 nM each time. In addition, the Dmax in assay [2] is above 75%. In assay [2] (BTK degradation), this compound registered a DC50 above 50 nM.

On to `NC1=NC=NC2C1C(c1ccc(Oc3ccccc3)cc1)=NN2C1CCCN(C2CN(C(=O)N3CC(C4CN(c5ccc6c(c5)C(=O)N(C5CCC(=O)NC5=O)C6=O)C4)C3)C2)C1` (centres unmarked) [Compound 501], for which the IC50 in assay [1] was 1000 to 10000 nM; in assay [3], below 1000 nM. The DC50 in assay [2] (setting [4]) is 10 to 50 nM. In addition, in assay [2] (setting [5]), the Dmax is above 90%.

Consider `NC(=O)c1c(-c2ccc(Oc3ccccc3)cc2)nn2c1NCC[C@H]2C1CCN(C2CCN(C(=O)N3CCN(Cc4ccc5c(c4)C(=O)N(C4CCC(=O)NC4=O)C5=O)CC3)CC2)CC1` (stereo partly drawn) [Compound 379, (7S)-7-(1′-(4-((2-(2,6-dioxopiperidin-3-yl)-1,3-dioxoisoindolin-5-yl)methyl)piperazine-1-carbonyl)-[1,4′-bipiperidin]-4-yl)-2-(4-phenoxyphenyl)-4,5,6,7-tetrahydropyrazolo[1,5-a]pyrimidine-3-carboxamide], for which the IC50 in assay [1] and in assay [3] was above 10000 nM throughout. In addition, the maximal degradation (Dmax) in assay [2] is above 75%. The same compound registered a DC50 in assay [2] (BTK degradation) above 50 nM.

The record behind these values is US12139492B2 (Endotarget Inc., priority 2021, dated 2024).
